Data from article PMC6829864, “Determination of Ligand Profiles for Pseudomonas aeruginosa Solute Binding Proteins” (International Journal of Molecular Sciences, 2019).
“Also recorded” adds a separate entry of the source.

Experiments:
[1] = biological target: T1, PA2338 (Pseudomonas aeruginosa, UniProt Q9I1E0); assay: Isothermal titration calorimetry, PA2338; type: binding, Pseudomonas aeruginosa PAO1; conditions: 25 °C
[2] = biological target: T2, PA0222 (Pseudomonas aeruginosa, UniProt Q9I6R6); type: binding; conditions: Tm change vs ligand-free protein
T2 sequence (Q9I6R6 29-352): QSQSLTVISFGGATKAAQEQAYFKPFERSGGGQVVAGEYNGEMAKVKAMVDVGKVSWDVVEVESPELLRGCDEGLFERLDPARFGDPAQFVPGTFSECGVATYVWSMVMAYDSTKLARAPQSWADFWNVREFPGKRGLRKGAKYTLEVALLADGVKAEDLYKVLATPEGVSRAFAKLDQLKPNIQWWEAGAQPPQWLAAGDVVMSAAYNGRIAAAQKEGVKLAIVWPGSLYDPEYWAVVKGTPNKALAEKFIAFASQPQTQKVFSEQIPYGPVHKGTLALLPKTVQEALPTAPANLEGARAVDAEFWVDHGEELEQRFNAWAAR

[3] = biological target: T2, PA0222; assay: Isothermal titration calorimetry, PA0222; type: binding, Pseudomonas aeruginosa PAO1; conditions: 25 °C
[4] = biological target: T3, PA3889 (opuCC) (Pseudomonas aeruginosa, UniProt Q9HXC4); assay: DSF thermal shift ligand screening, PA3889; type: binding, Pseudomonas aeruginosa PAO1; conditions: Tm change vs ligand-free protein
[5] = biological target: T3, PA3889 (opuCC); assay: Isothermal titration calorimetry, PA3889; type: binding, Pseudomonas aeruginosa PAO1; conditions: 25 °C
[6] = tested on: Pseudomonas aeruginosa PAO1; type: cell-based; conditions: chemoeffector 1 mM, except molybdate 0.1 mM
[7] = biological target: T4, PA3610 (potD) (Pseudomonas aeruginosa, UniProt Q9HY16); assay: Isothermal titration calorimetry, PA3610; type: binding, Pseudomonas aeruginosa PAO1; conditions: 25 °C
[8] = biological target: T5, PA2592 (Pseudomonas aeruginosa, UniProt Q9I0P5); assay: DSF thermal shift ligand screening, PA2592; type: binding, Pseudomonas aeruginosa PAO1; conditions: arrays PM2A, PM3B, PM5
T5 sequence (Q9I0P5 20-367): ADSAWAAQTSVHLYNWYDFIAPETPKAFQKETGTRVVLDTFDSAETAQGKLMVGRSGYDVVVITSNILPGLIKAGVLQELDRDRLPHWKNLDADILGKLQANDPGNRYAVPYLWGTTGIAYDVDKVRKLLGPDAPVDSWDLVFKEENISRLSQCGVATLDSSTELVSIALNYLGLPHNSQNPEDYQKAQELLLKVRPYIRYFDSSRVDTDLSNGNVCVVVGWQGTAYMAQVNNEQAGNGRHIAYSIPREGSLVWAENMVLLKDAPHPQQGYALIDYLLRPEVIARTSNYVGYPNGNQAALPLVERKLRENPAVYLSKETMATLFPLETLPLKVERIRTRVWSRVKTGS

[9] = biological target: T5, PA2592; assay: biochemical; type: binding
[10] = biological target: T6, PA1342 (aatJ) (Pseudomonas aeruginosa, UniProt Q9I402); type: binding; conditions: 25 °C
T6 sequence (Q9I402 24-302): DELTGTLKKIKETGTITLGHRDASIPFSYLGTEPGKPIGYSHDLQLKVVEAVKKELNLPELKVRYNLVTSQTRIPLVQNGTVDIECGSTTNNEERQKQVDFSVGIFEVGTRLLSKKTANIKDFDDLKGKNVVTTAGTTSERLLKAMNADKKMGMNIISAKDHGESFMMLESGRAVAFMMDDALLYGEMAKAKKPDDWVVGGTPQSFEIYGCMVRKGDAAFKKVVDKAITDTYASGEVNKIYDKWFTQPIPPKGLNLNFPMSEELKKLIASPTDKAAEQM

[11] = biological target: T6, PA1342 (aatJ); assay: DSF thermal shift ligand screening, PA1342; type: binding, Pseudomonas aeruginosa PAO1; conditions: Tm change vs ligand-free protein
[12] = biological target: T7, PA1074 (braC) (Pseudomonas aeruginosa, UniProt P21175); type: binding, Pseudomonas aeruginosa PAO1; conditions: Tm change vs ligand-free protein
[13] = biological target: T7, PA1074 (braC); assay: biochemical; type: binding, Pseudomonas aeruginosa PAO1
[14] = biological target: T1, PA2338; assay: DSF thermal shift ligand screening, PA2338; type: binding, Pseudomonas aeruginosa PAO1; conditions: Tm change vs ligand-free protein
[15] = biological target: T4, PA3610 (potD); assay: DSF thermal shift ligand screening, PA3610; type: binding, Pseudomonas aeruginosa PAO1; conditions: Tm change vs ligand-free protein
[16] = biological target: PA0283 (sbp); assay: Isothermal titration calorimetry, PA0283; type: binding, Pseudomonas aeruginosa PAO1; conditions: 25 °C
[17] = tested on: PA0283 (sbp); assay: DSF thermal shift ligand screening, PA0283; type: binding, Pseudomonas aeruginosa PAO1; conditions: Tm change vs ligand-free protein
[18] = biological target: T8, PA1493 (cysP) (Pseudomonas aeruginosa, UniProt Q9I3L9); conditions: Tm change vs ligand-free protein
[19] = biological target: T8, PA1493 (cysP); assay: biochemical; type: binding, Pseudomonas aeruginosa PAO1
[20] = tested on: PA4687 (hitA); type: binding, Pseudomonas aeruginosa PAO1
[21] = tested on: PA4687 (hitA); conditions: Tm change vs ligand-free protein

T4 sequence (Q9HY16 21-354): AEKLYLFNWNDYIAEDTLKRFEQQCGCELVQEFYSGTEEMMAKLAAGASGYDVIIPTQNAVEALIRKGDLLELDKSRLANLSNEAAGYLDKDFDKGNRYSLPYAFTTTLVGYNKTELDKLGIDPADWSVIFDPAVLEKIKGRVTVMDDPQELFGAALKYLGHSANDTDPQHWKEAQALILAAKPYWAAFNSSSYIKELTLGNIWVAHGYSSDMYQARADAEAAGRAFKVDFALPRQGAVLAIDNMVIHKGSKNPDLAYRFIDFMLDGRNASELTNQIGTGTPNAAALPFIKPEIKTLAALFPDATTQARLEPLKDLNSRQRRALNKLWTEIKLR
T3 sequence (Q9HXC4 24-311): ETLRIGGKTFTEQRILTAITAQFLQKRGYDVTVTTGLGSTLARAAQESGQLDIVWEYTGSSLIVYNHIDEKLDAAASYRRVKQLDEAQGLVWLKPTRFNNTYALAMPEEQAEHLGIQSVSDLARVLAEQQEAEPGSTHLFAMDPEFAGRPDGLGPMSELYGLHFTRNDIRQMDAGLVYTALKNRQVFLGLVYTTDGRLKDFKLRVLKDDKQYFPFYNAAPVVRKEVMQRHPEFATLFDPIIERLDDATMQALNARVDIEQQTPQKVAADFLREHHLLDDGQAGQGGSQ
T1 sequence (Q9I1E0 23-436): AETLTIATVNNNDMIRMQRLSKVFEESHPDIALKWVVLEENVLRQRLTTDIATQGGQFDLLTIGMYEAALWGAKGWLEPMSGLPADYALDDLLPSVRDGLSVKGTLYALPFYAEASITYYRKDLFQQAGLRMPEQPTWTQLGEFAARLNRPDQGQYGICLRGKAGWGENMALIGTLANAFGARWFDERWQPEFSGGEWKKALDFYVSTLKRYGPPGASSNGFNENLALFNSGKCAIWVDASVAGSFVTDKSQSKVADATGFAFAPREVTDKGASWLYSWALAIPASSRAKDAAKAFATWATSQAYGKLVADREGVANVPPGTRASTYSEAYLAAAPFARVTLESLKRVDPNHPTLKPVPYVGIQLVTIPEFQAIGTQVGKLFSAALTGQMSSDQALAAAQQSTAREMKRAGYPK
T7 sequence (P21175 27-373): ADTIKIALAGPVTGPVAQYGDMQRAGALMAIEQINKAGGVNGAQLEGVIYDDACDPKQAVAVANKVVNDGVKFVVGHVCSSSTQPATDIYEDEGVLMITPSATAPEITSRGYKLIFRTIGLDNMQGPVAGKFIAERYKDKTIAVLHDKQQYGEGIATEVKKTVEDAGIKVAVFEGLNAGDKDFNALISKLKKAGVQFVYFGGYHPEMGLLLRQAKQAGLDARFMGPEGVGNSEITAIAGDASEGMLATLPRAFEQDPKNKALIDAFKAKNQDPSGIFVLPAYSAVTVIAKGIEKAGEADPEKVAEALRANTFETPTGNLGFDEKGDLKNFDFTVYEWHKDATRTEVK
T8 sequence (Q9I3L9 23-332): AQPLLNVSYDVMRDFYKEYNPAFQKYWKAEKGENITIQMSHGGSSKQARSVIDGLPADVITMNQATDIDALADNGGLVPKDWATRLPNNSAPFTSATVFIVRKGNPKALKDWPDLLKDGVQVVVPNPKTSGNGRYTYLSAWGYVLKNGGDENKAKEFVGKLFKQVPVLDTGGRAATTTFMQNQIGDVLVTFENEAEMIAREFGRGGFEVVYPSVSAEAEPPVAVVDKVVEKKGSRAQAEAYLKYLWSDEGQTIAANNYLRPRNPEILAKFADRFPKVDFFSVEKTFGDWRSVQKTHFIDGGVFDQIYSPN

OC[C@H]1O[C@H](O[C@H]2[C@H](O)[C@@H](O)C(O)O[C@@H]2CO)[C@H](O)[C@@H](O)[C@@H]1O (mixture of isomers) [Maltose]
No Binding Observed by ITC [1]: absence of maltose binding

CC(N)CCC(=O)O (stereo not drawn) [4-aminovalerate, 4-aminovaleric acid]
Tm DSF (Tm increase) [2]: 2.2 °C
KD by ITC [3]: No binding
No Binding Observed by ITC [3]: failed to bind

NCCCC(=O)O [GABA, γ-amino-butyric acid]
Tm DSF (Tm increase) [2]: 9.6 °C

C[N+](C)(C)CC(=O)O [Glycine-betaine]
Tm DSF (Tm increase) [4]: 3.2 °C
Kd ([5]; read-out: KD by ITC): 3000 ± 400 nM
Chemotaxis response in words [6]: very strong taxis

NCCc1c[nH]cn1 [Histamine]
No Binding Observed by ITC [7]: did not reveal any binding
No Binding Observed by ITC [3]: failed to bind; also recorded: no measurable affinity
Tm DSF (Tm increase) [8]: 3.9 °C
KD by ITC ([9]; PA2592, 25 °C): No binding
No Binding Observed by ITC ([9]; PA2592, 25 °C): no binding

NC(=O)C[C@H](N)C(=O)O [L-Asn]
No Binding Observed by ITC [10]: No binding was observed

N[C@@H](CC(=O)O)C(=O)O [L-Asp]
Tm DSF (Tm increase) [11]: 10.9 °C

NC(=O)CC[C@H](N)C(=O)O [L-Gln]
No Binding Observed by ITC [10]: No binding was observed

CC(C)C[C@H](N)C(=O)O [L-Leu]
Tm DSF (Tm increase) [12]: 4.0 12.1 10.1 10.2 3.0 3.5 5.0 3.8 4.2 °C
Kd [13]: 290 nM

C[N+](C)(C)C[C@H](O)CC(=O)[O-] [L-carnitine]
Tm DSF (Tm increase) [4]: 2.8 °C
KD by ITC [5]: No binding
No Binding Observed by ITC [5]: no binding heats were observed
Chemotaxis ([6]; capillary assay, 30 min): Yes Yes (Positive chemotaxis was considered when the number of bacterial cells per capillary was superior to 5000.)
Chemotaxis response in words [6]: very strong taxis

OC[C@@H](O)[C@@H](O)[C@H](O)[C@H](O)CO [Mannitol]
Kd ([1]; read-out: KD by ITC): 830 ± 200 nM
Tm DSF (Tm increase) [14]: 4.1 °C

NCCCCN [Putrescine]
Kd ([7]; read-out: KD by ITC (converted)): 4800 ± 400 nM
No Binding Observed by ITC [3]: no measurable affinity
Tm DSF (Tm increase) [15]: 13 n. d.^2 °C
Tm DSF (Tm increase) ([15]; listed as putrescine): 13 °C
Tm DSF (Tm increase) [8]: 4.4 °C
Kd [9]: 31000 ± 4000 nM

NCCCCNCCCN [Spermidine]
No Binding Observed by ITC [7]: did not reveal any binding
No Binding Observed by ITC [3]: failed to bind; also recorded: no measurable affinity
Tm DSF (Tm increase) [15]: did not stabilize the protein
No Binding Observed by ITC ([9]; PA2592, 25 °C): no binding

O=S(O)(O)=S [Thiosulphate]
KD by ITC [16]: No binding No binding
Tm DSF (Tm increase) [17]: 2.1 °C
Chemotaxis response in words [6]: moderate taxis
Tm DSF (Tm increase) [18]: 7.4 °C
Kd [19]: 290 ± 200 nM

Iron(III) citrate
No Binding Observed by ITC [20]: did not show any binding
Tm DSF (Tm increase) [21]: no significant increases in Tm
